Test results as given in patent US20250051355A1, “COMPOUNDS, COMPOSITIONS, AND METHODS” (ACONCAGUA BIO, INC., priority 2023, published 2025).

Assays:
[1] = molecular target: human calcitonin receptor (CTR) and RAMP3 (AMY3) (Homo sapiens, UniProt O60896+P30988); test: Amylin Receptor cAMP Assay II; format: cell-based; settings: COS-7/AMY3 cells, cAMP dynamic 2 kit, read-out: Amylin Receptor cAMP Stimulation Activity: EC50
Source text: Amylin Receptor cAMPAssay II
AMYRs are heterodimers of the class B calcitonin (CT) G-protein-coupled receptor (CTR) and receptor activity-modifying proteins (RAMPs). All three RAMPs can interact with the CTR and form AMY1, AMY2, AMY3 with RAMP1, RAMP2 and RAMP3, respectively. Like other class B1 GPCRs, the CT receptor family is canonically coupled to Gs-mediated cAMP production, and measurement of cAMP accumulation has been the primary assay used to determine peptide selectivity and potency.
(§1) To optimize functional activity directed toward Gas coupling, COS-7 cells were stably transfected with human calcitonin receptor (CTR) and RAMP3, simultaneously. 100×concentration of compound working solutions were prepared with 4-fold serial dilution in 384-well Echo LDV plate (Labcyte, Cat #LP-0200-BC). 200 nL/well 100×concentration of compound working solutions were moved to 384-well white microplate (Perkin Elmer, Cat #6007680) using Labcyte ECHO550. […] cells/mL COS-7/AMY3 cell suspensions prepared with assay buffer [HBSS containing 20 mM HEPES (Gibco, Cat #15630-080), 0.5 mM IBMX (Sigma, Cat #15879) and 0.1% Casein (Sigma, Cat #C4765)], 20 μL cell suspensions were added to each well of previous generated assay plate which already contains 200 nL compound at 100×concentration using ThermoFisher Multidrop Combi (2000 cells/well). Seal the plate and incubate at 37° C. with 5% CO2 for 30 min.
(§2) After incubation, the cAMP assay signal was generated using cAMP dynamic 2 kit (Revvity, Cat #62AM4PEC). 10 μL cAMP-d2 working solution was added to each well, followed by 10 μL Anti-cAMP antibody-cryptate working solution which was added to each well using CERTUS FLEX LIQUID DISPENSER The samples were then incubated at room temperature for 1 hour protected from light. the fluorescence was read at 665 and 615 nm with Reader PerkinElmer EnVision 2105.

[2] = molecular target: T1, human calcitonin receptor (CTR) (Homo sapiens, UniProt P30988); test: Calcitonin receptor (CTR) cAMP Assay; format: cell-based; settings: COS7-human CTR Clone #2 cells, cAMP dynamic 2 kit; read-out: Calcitonin Receptor cAMP Stimulation Activity: EC50
T1 construct: expressed in transfected cells; host or cells: COS-7 (COS7-human CTR Clone #2)
T1 sequence (P30988 25-474): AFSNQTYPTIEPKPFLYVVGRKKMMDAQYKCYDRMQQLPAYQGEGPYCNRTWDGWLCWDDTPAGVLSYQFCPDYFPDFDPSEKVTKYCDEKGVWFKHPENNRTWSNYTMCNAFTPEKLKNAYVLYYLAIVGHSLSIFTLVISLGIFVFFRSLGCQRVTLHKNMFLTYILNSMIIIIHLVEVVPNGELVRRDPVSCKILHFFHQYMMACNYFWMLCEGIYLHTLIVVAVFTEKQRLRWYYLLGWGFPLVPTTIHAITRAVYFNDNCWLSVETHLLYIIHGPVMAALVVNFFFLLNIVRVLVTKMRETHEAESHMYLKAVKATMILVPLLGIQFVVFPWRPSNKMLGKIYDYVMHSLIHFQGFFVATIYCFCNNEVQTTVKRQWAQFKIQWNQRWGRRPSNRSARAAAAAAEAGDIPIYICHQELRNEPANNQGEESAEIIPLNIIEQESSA
Source text: Calcitonin receptor (CTR) cAMPAssay
The calcitonin receptor (CTR) belongs to the subfamily of GPCRs known as the secretin or ‘B’ family of GPCRs. Like other class B1 GPCRs, the CT receptor family is canonically coupled to Gs-mediated cAMP production, and measurement of cAMP accumulation has been the primary assay used to determine peptide selectivity and potency.
as §1, with “to create COS7-human CTR Clone #2 stable cell line. 100× concentration” for “and RAMP3, simultaneously. 100×concentration”, “COS7-human CTR Clone #2” for “COS-7/AMY3”
as §2, with “#62AM4PEC). […] cAMP-d2 working” for “#62AM4PEC). 10 μL cAMP-d2 working”

Sequence of human calcitonin receptor (CTR) and RAMP3 (AMY3) (O60896 24-148, one chain of several): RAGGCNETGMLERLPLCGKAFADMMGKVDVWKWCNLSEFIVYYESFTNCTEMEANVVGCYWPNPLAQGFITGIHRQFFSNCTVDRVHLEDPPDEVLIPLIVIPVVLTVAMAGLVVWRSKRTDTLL

| SMILES | EC50 [1] [nM] | EC50 [2] [nM] |
| --- | --- | --- |
| COc1cccc2c1CC[C@H]2Nc1nccc2cc(-c3c(-c4nnc(C)o4)c(CCC4CCOCC4)nc4c3S(=O)(=O)N3CCC[C@@H]43)sc12 [Compound 84, [(R)-4-methoxy-1-indanyl](2-((2S)-10-(5-methyl-1,3,4-oxadiazol-2-yl)-7,7-dioxo-11-[2-(tetrahydro-2H-pyran-4-yl)ethyl]-7λ^6-thia-6,12-diazatricyclo[6.4.0.0^2,6]dodeca-1(12),8,10-trien-9-yl}-1-thia-6-aza-7-indenyl)amine] | 91.6 | 7.4 |
| Cc1nnc(-c2c(CCC3CCOCC3)nc3c(c2C2CCN(C(=O)Cc4ccc(F)c(F)c4)CC2)S(=O)(=O)CC3C(C)C)o1 (stereo not shown) [Compound 106, 7-{1-[2-(3,4-difluorophenyl)acetyl]-4-piperidyl}-3-isopropyl-6-(5-methyl-1,3,4-oadiazol-2-yl)-5-[2-(tetrahydro-2H-pyran-4-yl)ethyl]-1λ^6-thia-4-aza-1,1-indandione] | > 100 | 3230 |
| CC(C)C1CS(=O)(=O)c2c1nc(CCC1CCOCC1)c(-c1nnc(CN(C)C)o1)c2-c1cc2ccnc(N[C@@H]3CCc4ncccc43)c2s1 (stereo partly drawn) [Compound 117, 7-(7-[(R)-4-aza-1-indanylamino]-1-thia-6-aza-2-indenyl}-6-(5-[(dimethylamino)methyl]-1,3,4-oxadiazol-2-yl}-3-isopropyl-5-[2-(tetrahydro-2H-pyran-4-yl)ethyl]-1λ^8-thia-4-aza-1,1-indandione] | 257 | 9.93 |
| Cc1nnc(-c2c(CCC3C4COCC34)nc3c(c2-c2cc4ccnc(N[C@@H]5CCc6ncccc65)c4s2)S(=O)(=O)CC3C(C)C)o1 (stereo partly drawn) [Compound 115, N—(R)-4-aza-1-indanyl(2-[3-isopropyl-6-(5-methyl-1,3,4-oxadiazol-2-yl)-5-(2-(3-oxabicyclo[3.1.0]hex-6-yl)ethyl}-1,1-dioxo-1λ^6-thia-4-aza-7-indanyl]-1-thia-6-aza-7-indenyl}amine] | 305 | 14.5 |
| Cc1cnc(-c2c(CCC3CCOCC3)nc3c(c2-c2ccc4c(c2)oc(=O)n4Cc2ccc(C#N)cn2)C(=O)N2CCC[C@@H]32)o1 [Compound 101] | 38.1 | 2.23 |
| COc1cccc2c1CC[C@H]2Nc1nccc2cc(-c3c(-c4nnc(C)o4)c(CCC4CCOCC4)nc4c3S(=O)(=O)CC4C(C)C)sc12 (stereo partly drawn) [Compound 77, 3-isopropyl-7-(7-(((R)-4-methoxy-2,3-dihydro-1H-inden-1-yl)amino)thieno[2,3-c]pyridin-2-yl)-6-(5-methyl-1,3,4-oxadiazol-2-yl)-5-(2-(tetrahydro-2H-pyran-4-yl)ethyl)-2,3-dihydrothieno[3,2-b]pyridine 1,1-dioxide] | 427 | 6.4 |
| Cc1nnc(-c2c(CCC3CCOCC3)nc3c(c2-c2ccc4c(cnn4Cc4ccc(C#N)c(F)c4)c2)C(=O)N2CCOC[C@@H]32)o1 [Compound 105, 4-[(5-((4aR)-7-(5-methyl-1,3,4-oxadiazol-2-yl)-9-oxo-6-[2-(tetrahydro-2H-pyran-4-yl)ethyl]-1,2,4,4a-tetrahydro-9H-3-oxa-5,9a-diazafluoren-8-yl}-1H-indazol-1-yl)methyl]-2-fluorobenzonitrile] | 385 | 9.56 |
| Cc1nnc(-c2c(CCC3CCOCC3)nc3c(c2-c2cc4ncnc(N[C@@H]5CCc6ncccc65)c4s2)S(=O)(=O)CC3C(C)C)o1 (stereo partly drawn) [Compound 89, N—(R)-4-aza-1-indanyl(2-(3-isopropyl-6-(5-methyl-1,3,4-oxadiazol-2-yl)-1,1-dioxo-5-[2-(tetrahydro-2H-pyran-4-yl)ethyl]-1λ^6-thia-4-aza-7-indanyl}-1-thia-4,6-diaza-7-indenyl)amine] | 587 | 42.9 |

The next lines start with the values.

| EC50 [1] [nM] | EC50 [2] [nM] | SMILES |
| --- | --- | --- |
| 1970 | 276 | Cc1nnc(-c2c(CCC3CCOCC3)nc3c(c2-c2cc4ccnc(Nc5ccc(F)c(F)c5)c4s2)S(=O)(=O)CC3C(C)C)o1 (stereo not shown) [Compound 137] |
| 449 | 72.8 | Cc1ccnc(-c2c(CCC3CCOCC3)nc3c(c2-c2cc4ccnc(N[C@@H]5CCc6ncccc65)c4s2)S(=O)(=O)CC3C(C)C)c1 (stereo partly drawn) [Compound 118, N—(R)-4-aza-1-indanyl(2-(3-isopropyl-6-(4-methyl-2-pyridyl)-1,1-dioxo-5-[2-(tetrahydro-2H-pyran-4-yl)ethyl]-11′-thia-4-aza-7-indanyl}-1-thia-6-aza-7-indenyl)amine] |
| 70.2 | 3.67 | Cc1cnc(-c2c(CCC34CCC(CC3)OC4)nc3c(c2-c2ccc4c(c2)OC(C)(C)C(=O)N4Cc2ccc(F)cn2)c(=O)n2n3CCC2)o1 [Compound 159, 9-(4-[(5-fluoro-2-pyridyl)methyl]-2,2-dimethyl-3-oxo-2,4-dihydro-1,4-benzoxazin-7-yl}-10-(5-methyl-1,3-oxazol-2-yl)-11-(2-(2-oxabicyclo[2.2.2]oct-4-yl)ethyl}-2,6,12-triazatricyclo[6.4.0.0^2,6]dodeca-1(12),8,10-trien-7-one] |
| 2310 | 186 | Cc1nnc(-c2c(CCC3CCOCC3)nc3c(c2-c2ccc4nn(Cc5ccc(C#N)c(F)c5)cc4c2)C(=O)N2CCOC[C@@H]32)o1 [Compound 130, 4-[(5-((4aR,9aR)-7-(5-methyl-1,3,4-oxadiazol-2-yl)-9-oxo-6-[2-(tetrahydro-2H-pyran-4-yl)ethyl]-1,2,4,4a-tetrahydro-9H-3-oxa-5,9a-diazafluoren-8-yl}-2H-indazol-2-yl)methyl]-2-fluorobenzonitrile] |
| 869 | 115 | Cc1nnc(-c2c(CCC3CCOCC3)nc3c(c2-c2cc4ccnc(Cc5ccc(F)c(F)c5)c4s2)S(=O)(=O)CC3C(C)C)o1 (stereo not shown) [Compound 138, 7-(7-[(3,4-difluorophenyl)methyl]-1-thia-6-aza-2-indenyl}-3-isopropyl-6-(5-methyl-1,3,4-oxadiazol-2-yl)-5-[2-(tetrahydro-2H-pyran-4-yl)ethyl]-1λ^6-thia-4-aza-1,1-indandione] |
| 1540 | 120 | Cc1nnc(-c2c(CCC3CCOCC3)nc3c(c2-c2cnc4c(ccn4Cc4ccc(C#N)cn4)c2)S(=O)(=O)CC3C(C)C)o1 (stereo not shown) [Compound 128, 6-[(5-(3-isopropyl-6-(5-methyl-1,3,4-oxadiazol-2-yl)-1,1-dioxo-5-[2-(tetrahydro-2H-pyran-4-yl)ethyl]-1-thia-4-aza-7-indanyl}-1H-1,7-diazainden-1-yl)methyl]nicotinonitrile] |
